Values joined by “and” are separate entries in the source; they are usually repeats but may differ in a detail not shown here. Equal values may be shown once.
Legend:
[1] = Leucine bioavailability (plasma leucine from dry blood spots) in aged mice; format: in vivo
Method: Aged mice (animal model: see example 1) were fed with one of the 4 supplements at TO and after 10 minutes a droplet of blood from the tail was collected and stamped on a card. […] The results are plotted in FIG. 2A. Since feces was not collected, it was not possible to precisely calculate the N in- and output. […] Summarized, the amount of leucine present in the intact protein was known from the analyses of the pure protein sources (data sheets available). […] Since fasted mice also show a baseline level of plasma leucine, these values were then deducted from the obtained leucine plasma values (column D in table below). […] It was then calculated the contribution of the increase from the intact Leu (column E) and from the added free leucine (column F).

[2] = test system: Muscle Protein Synthesis (MPS); details: same experimental protocol, earlier work; cited from earlier work

bioavailability factor of leucine (rise of plasma leucine per mg of leucine consumed) [1]: 17.4 mmol/L/mg and 17.3 mmol/L/mg
SMILES: CC(C)C[C@H](N)C(=O)O [free leucine, L-leucine]
anabolic (MPS) response in aged mice, Dijk (2018) [2]: did not show an anabolic response

Reference: patent publication US20240269215A1, “NUTRITIONAL COMPOSITION FOR MUSCLE MASS, STRENGTH AND FUNCTION” (N.V. Nutricia, priority 2021, published 2024)
